Data taken from paper PMC3399817 (PLoS ONE, 2012).

Experiments:
Type in all cases: cell-based
[1] = system: phospho-Iκβα (Ser32/Ser36); assay: Bio-Plex phospho-Iκβα; details: HKe-3 cells, 1 µM
Protocol: (§1) The Bio-Plex assay system was used to measure signaling in drug-treated cells. Briefly, cells were incubated in the presence of drug for various amounts of time and then lysed in Bio-Rad cell lysis buffer (Bio-Rad). Protein quantification was performed using BCA assay (Pierce) and 5 µg of protein from each sample was used for Bio-Plex analysis. Phospho-signaling assays were performed using available phospho-signaling assay kits and quantified on a Bio-Plex 200 system (Bio-Rad): p-Iκβα (Ser32/Ser36), p-JNK (Thr183/Tyr185), p-MEK1 (Ser217/Ser221), p-ERK1/2 (Thr202/Tyr204, Thr185/Tyr187), p-p90RSK (Thr359/Ser363), p-p38 (Thr180/Tyr182), p-c-JUN (Ser63), p-ATF2 (Thr71), p-AKT (Ser473), p-S6 (Ser235/Ser236), p-STAT3 (Ser727), p-STAT3 (Tyr705), and p-GSK3α/β (Ser21/Ser9). Bio-Plex assay for total MEK1 was also performed as a loading control.

HCT-116 (K-RAS^G13D/+) = assay: Cell viability (Syto60); details: 72 hours, HCT-116 compared to HKe-3, normalized to DMSO
Protocol: (§2) All colon cancer cell lines were maintained in DMEM supplemented with penicillin (100 units/mL), streptomycin (100 μg/mL), and 10% fetal bovine serum (FBS). The rectal cancer cell line (Car1) was maintained in DMEM/F12 supplemented with penicillin (100 units/mL)/streptomycin (50 μg/mL), and 5% FBS. […] The target sequences for knockdowns can be found in Table S2. In drug treatment experiments, cells were plated for 24 hours prior to exposure to drug. AZ-628 was obtained from AstraZeneca. CI-1040 was obtained from Pfizer. R406 was synthesized in the Gray laboratory. BAY61-3606 and IKK VII were purchased from EMD Biosciences. BAY derivatives were synthesized for this study.
(§3) Cell cycle analysis was performed via FACS-based propidium iodide quantification, using standard methods. To measure cell viability, cells were grown in 96-well plates in the presence or absence of drug for 72 hours, fixed with 4% paraformaldehyde, and then stained with Syto60 (Invitrogen). Plates were imaged and quantified using the LiCor Odyssey system (LiCor).

[2] = system: phospho-JNK (Thr183/Tyr185); assay: Bio-Plex phospho-JNK; details: HKe-3 cells, 1 µM
Protocol: as §1

[3] = system: phospho-MEK1 (Ser217/Ser221) and phospho-ERK1/2 (Thr202/Tyr204, Thr185/Tyr187); assay: Bio-Plex phospho-MEK1 and phospho-ERK1/2; details: 45 minute exposure, 1 µM, K-RAS wild-type and mutant cells
Protocol: as §1

[4] = system: colorectal cancer cells expressing mutant B-RAF (V600E) (HT-29, RKO); assay: Cell viability (Syto60); details: HT-29 and RKO, 72 hours
Protocol: as §2, §3

HT-29 (B-RAF^V600E/+) = assay: Cell cycle analysis (propidium iodide FACS); details: cell lines that express mutant B-RAF (HT-29)
Protocol: as §3

HKe-3 (K-RAS^−/+) = assay: Cell viability (Syto60); details: 72 hours; for cooperation with / sensitization to AZ-628 (cell viability): K-RAS wild-type cells (HKe-3), 1 µM AZ-628
Protocol: as §2, §3

DLD-1 cells = assay: Cell viability (Syto60); details: DLD-1, 72 hours, 1 μM
Protocol: as §2, §3

DKs-8 = assay: Cell viability (Syto60); details: DKs-8, 72 hours, 1 μM
Protocol: as §2, §3

For `Cc1ccc(NC(=O)c2cccc(C(C)(C)C#N)c2)cc1Nc1ccc2ncn(C)c(=O)c2c1` [AZ-628], the Iκβα phosphorylation [1] was “further induced”, the “sensitivity of cells expressing mutant K-RAS (cell viability)” value (HCT-116 (K-RAS^G13D/+)) was “relatively sensitive” and the JNK activation [2] was “strongly activated”. For the same compound, the “MEK and ERK phosphorylation” value [3] was “suppressed MEK and ERK phosphorylation”.
For `O=C(NOCC1CC1)c1ccc(F)c(F)c1Nc1ccc(I)cc1Cl` [CI-1040], the “cell viability, combination of BAY61-3606 and CI-1040” value [4] was “cooperated to produce an enhanced response”, the “sensitivity of cells expressing mutant B-RAF (cell viability)” value ([4]; single agent) was “sensitive” and the “sensitivity of cells expressing mutant K-RAS (cell viability)” value (HCT-116 (K-RAS^G13D/+)) was “insensitive”. The cell cycle effect (HT-29 (B-RAF^V600E/+)) was “induced G1 arrest”.
In the case of `O=C(c1ccc(Nc2nccc(-c3cc4ccccc4s3)n2)cc1)N1CCC(N2CCCC2)CC1` [IKK inhibitor VII], the “sensitization to AZ-628 (cell viability)” value (HKe-3 (K-RAS^−/+); HKe-3 cells with MAP4K2 knockdown, 1 µM + 1 µM AZ-628) is reported as “abrogated the ability of IKK inhibitor VII to sensitize” and the “cooperation with / sensitization to AZ-628 (cell viability)” value (HKe-3 (K-RAS^−/+)) is reported as “enhanced the effect of AZ-628”.
With `COc1cc(Nc2ncc(F)c(Nc3ccc4c(n3)NC(=O)C(C)(C)O4)n2)cc(OC)c1OC` [R406] the “sensitivity (cell viability)” value (DLD-1 cells) was “did not exhibit sensitivity” and the “sensitivity (cell viability)” value (DKs-8) was “did not exhibit sensitivity”.
`Oc1c2ccccc2c2c3c(cccc13)N=N2` [SP600125] was tested, and the “cooperation with / sensitization to AZ-628 (cell viability)” value (HKe-3 (K-RAS^−/+)) was “did not affect AZ-628 sensitivity”.
